Here are results for 20 compounds from patent publication US6383773B2, “Penicillin conversion” (Massachusetts Institute of Technology, priority 1998, dated 2002).

Assay [1] deals with T1, S. clavuligerus expandase (Streptomyces clavuligerus, UniProt P18548).
T1 construct: The cells were resuspended in the same buffer and disrupted by four 25-sec. sonication treatments; endogenous in cells; host or cells: S. clavuligerus mutant NP1, crude cell-free extract
To be noted: literature reports (Jensen 1982; Dotzlaf 1989; Yeh 1994; Maeda 1995); cited from earlier work.

Assay [2] deals with T1, S. clavuligerus expandase. Description: Penicillin ring expansion by cell-free S. clavuligerus expandase extracts, paper disc-agar diffusion bioassay. The class given is biochemical. The following applies: 4 mg/ml extract protein; for Ring expansion, size of zones of inhibition: 2 mg/ml substrate (penicillin mX and octanoyl-6-APA 3 mg/ml), 2 hours; for Inhibition Zone Diameter: 2 hours of reaction, 250 μl in bioassay (E. coli ESS, penicillinase). As for the experimental part: Preparation of Cell-free Extracts: Fermentation broths were centrifuged at 8,000×g and 4° C. for 10 min. Pellets were washed twice using 50 mM Tris-HCI supplemented with 0.1 mM dithiothreitol (DTT). The cells were resuspended in the same buffer and disrupted by four 25-sec. sonication treatments (power setting 5 and duty cycle 50%), in an ice-water bath using a Branson 350 sonifier (Branson Sonic Power Co., Danbury, Conn.). Cell debris was removed by centrifugation (14,000×g, 30 min., 4° C.). The resulting extracts containing 8-10 mg protein/ml were placed on ice and utilized immediately. Protein concentrations were measured using the Bio-Rad protein assay (Bio-Rad, Hercules, Calif.). Bovine serum albumin was used as standard.
Ring Expansion Reaction: We defined ring expansion reaction conditions as modifications of the standard reaction mixture for expandase reactions described by Maeda et al. (Maeda et al., Enzyme Microb. Technol. 17:231-34, 1995) except that penicillin G was used a substrate instead of penicillin N. Additions were made following the order established by Shen et al. (Shen et al., Enzyme Microb. Technol. 6:402-404, 1984. Reaction mixtures were incubated in test tubes (cell-free extract) or 250 ml baffled flasks (resting cells) at 220 rpm, 30° C. Reactions containing the protein extract were stopped at various times (see Table 1 and Figure Legends) by mixing 0.5 ml of assay solution with 0.5 ml of methanol. In the case of resting cells, samples were centrifuged to remove cells and supernatants were transferred to new tubes. Expandase activity was detected by paper disc-agar diffusion bioassay.
Detection of Expandase Activity: As mentioned above, expandase activity was detected by assaying production of a growth-inhibitory zone in a paper disc-agar diffusion bioassay. Paper discs were saturated with 200 μl of the reaction mixture (cell-free extracts or supernatant (resting cells) as follows. Two discs were superimposed and four 50 μl samples were applied. After each application, the discs were allowed to dry for 20 min at 37° C. under a laminar hood and, finally, they were placed on LB (1% tryptone, 0.5% NaCl, 0.5% yeast extract, 0.1% glucose) 0.8% agar medium seeded with E. coli ESS (a β-lactam supersensitive mutant), and the plates were incubated overnight at 37° C. The formation of DAOG and/or other cephalosporin(s) was determined by including 50,000 IU/ml of penicillinase (Difco Bacto penase concentrate, Difco Laboratories, Detroit, Mich.) in the assay plates. This penicillinase is a narrow spectrum β-lactamase that attacks penicillins but not cephalosporins. The diameters of zones of growth inhibition were measured and quantified with a calibration curve using DAOG as standard.
Ring Expansion of Other Penicillins by Cell-free Extracts: We tested our reaction conditions for their ability to support ring expansion on other penicillin substrates and found detectable expansion with each of the 15 substrates that we tested. […] The reactions contained 4 mg/ml extract (protein concentration), 50 mM Tris-HCl pH 7.4, 1.8 mM FeSO4, 1.28 mM α-ketoglutarate, 8 mM MgSO4, 8 mM KCl, 4 mM ascorbic acid, 14 mM DTT, and 2 mg/ml substrate (except for penicillin mX and octanoyl-6-APA, which were used at 3 mg/ml). Samples were centrifuged at 12K rpm for 5 minutes after 2 hours of reaction. 250 μl of reaction mixture was used in each bioassay.
(In general: In agar diffusion tests the substance spreads into inoculated agar from a disc or well.)

For another assay, the target named is T2, C. acremonium expandase (Hapsidospora chrysogena, UniProt P11935).
T2 sequence (P11935 1-332): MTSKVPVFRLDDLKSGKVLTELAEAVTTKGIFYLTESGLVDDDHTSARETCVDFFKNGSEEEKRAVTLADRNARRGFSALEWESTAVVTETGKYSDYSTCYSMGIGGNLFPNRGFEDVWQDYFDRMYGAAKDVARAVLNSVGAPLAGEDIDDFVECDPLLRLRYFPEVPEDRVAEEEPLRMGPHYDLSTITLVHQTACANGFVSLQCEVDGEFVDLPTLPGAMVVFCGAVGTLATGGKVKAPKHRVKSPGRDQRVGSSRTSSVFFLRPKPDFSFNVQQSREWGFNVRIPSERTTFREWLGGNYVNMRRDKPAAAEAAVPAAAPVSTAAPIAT
To be noted: cited from earlier work; for substrate for expandase activity: crude extracts (Kohsaka et al. 1976; Demain et al.).

The subject of assay [3] is S. clavuligerus or C. acremonium expandase enzymes. The following applies: cited from earlier work; for ability to expand: in vitro (Bowers 1984; Baldwin 1987; Shibata 1996); for in vitro substrate: suggested by Baldwin et al. 1987, subsequent work failed to confirm.

T1 sequence (P18548 whole entry): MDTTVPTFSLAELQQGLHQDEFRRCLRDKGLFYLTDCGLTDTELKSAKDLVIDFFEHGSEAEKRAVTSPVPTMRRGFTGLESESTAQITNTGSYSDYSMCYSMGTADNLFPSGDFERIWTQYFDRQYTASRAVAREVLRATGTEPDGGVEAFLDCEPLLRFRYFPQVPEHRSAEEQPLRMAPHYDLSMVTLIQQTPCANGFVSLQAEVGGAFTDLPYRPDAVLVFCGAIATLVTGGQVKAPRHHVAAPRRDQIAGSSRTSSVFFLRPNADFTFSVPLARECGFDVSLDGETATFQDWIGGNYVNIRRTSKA

For `CC1(C)S[C@@H]2[C@H](NC(=O)CCCCC(=O)O)C(=O)N2[C@H]1C(=O)O` [Adipyl-6-APA, adipyl-6-APA], the ring expansion entry in assay [1] is listed as “not”; on C. acremonium expandase (partially purified enzyme (Kupka et al. 1983)) it was “does not expand”. The “Ring expansion, size of zones of inhibition” value (“Ring expansion … of inhibition” for short) in assay [2] is listed as “intermediate size zones”. In addition, in assay [2] (2 mg/ml substrate), the “Inhibition Zone Diameter” value amounted to 20 mm. Moreover, the ability to expand result in assay [3] is “some ability”.

Turning to `CCCC(=O)NC1C(=O)N2C1SC(C)(C)C2C(=O)O` (stereo not shown) [Butyryl-6-APA, butyryl-6-APA], the ring expansion entry in assay [1] was “not”. Further, the “Ring expansion … of inhibition” value in assay [2] is given as “intermediate size zones”. Besides, the “Inhibition Zone Diameter” value in assay [2] (2 mg/ml substrate) came to 17.5 mm.

Consider `CCCCCCCC(=O)N[C@@H]1C(=O)N2[C@@H]1SC(C)(C)[C@@H]2C(=O)O` [Octanoyl-6-APA, octanoyl-6-APA], for which the “Ring expansion … of inhibition” value in assay [2] was “intermediate size zones”. Besides, the “Inhibition Zone Diameter” value in assay [2] (3 mg/ml substrate) is on record as 16 mm.

Take `CCCCCCC(=O)NC1C(=O)N2[C@@H]1SC(C)(C)[C@@H]2C(=O)O` (stereo partly shown) [Heptanoyl-6-APA, heptanoyl-6-APA]: the “Ring expansion … of inhibition” value in assay [2] was “intermediate size zones”. The “Inhibition Zone Diameter” value in assay [2] (2 mg/ml substrate) was 16.5 mm.

`CC1(C)S[C@@H]2[C@H](NC(=O)CCC[C@@H](N)C(=O)O)C(=O)N2[C@H]1C(=O)O` [penicillin N]: the ring expansion entry in assay [1] is listed as “expands the ring”. Also, at C. acremonium expandase, the “substrate for expandase activity” value is on record as “substrates”.

In the case of `CCCCCCCCC(=O)NC1C(=O)N2C1SC(C)(C)C2C(=O)O` (stereo not shown) [Nonanoyl-6-APA, nonanoyl-6-APA], the “Ring expansion … of inhibition” value in assay [2] is listed as “smaller zones”. In assay [2] (2 mg/ml substrate), the “Inhibition Zone Diameter” value was determined as 10.5 mm.

For the compound `CC1(C)S[C@@H]2[C@H](NC(=O)Cc3ccc(O)cc3)C(=O)N2[C@H]1C(=O)O` [Penicillin X, penicillin X], in assay [2], the “Ring expansion … of inhibition” value was “Large zones of inhibition”. Further, the “Inhibition Zone Diameter” value in assay [2] (2 mg/ml substrate) is 30.5 mm.

For the compound `CC1(C)SC2C(NC(=O)Cc3cccs3)C(=O)N2C1C(=O)O` (stereo not shown) [2-Thiophenylacetyl-6-APA, 2-thiophenylacetyl-6-APA], in assay [2], the “Ring expansion … of inhibition” value is “Large zones of inhibition”. Also, the “Inhibition Zone Diameter” value in assay [2] (2 mg/ml substrate) turned out to be 32 mm.

In the case of `CCCCCCCCCC(=O)NC1C(=O)N2C1SC(C)(C)C2C(=O)O` (stereo not shown) [Decanoyl-6-APA, decanoyl-6-APA], in assay [2], the “Ring expansion … of inhibition” value is on record as “smaller zones”. Further, in assay [2] (2 mg/ml substrate), the “Inhibition Zone Diameter” value stood at 7 mm.

With `CC1(C)S[C@@H]2[C@H](N)C(=O)N2[C@H]1C(=O)O` [6-aminopenicillanic acid], on C. acremonium expandase, the “substrate for expandase activity” value is recorded as “not”.

Regarding D-carboxymethylcysteinyl-6-APA, the ability to expand entry in assay [3] is listed as “some ability”.

Consider glutamyl-6-APA, for which, in assay [3], the in vitro substrate entry is “at very low levels”.

Take `CCCCCC(=O)NC1C(=O)N2[C@@H]1SC(C)(C)[C@@H]2C(=O)O` (stereo partly shown) [Hexanoyl-6-APA, hexanoyl-6-APA]: the “Ring expansion … of inhibition” value in assay [2] is “intermediate size zones”. For the same compound, the “Inhibition Zone Diameter” value in assay [2] (2 mg/ml substrate) is on record as 19.5 mm.

Turning to `CCCCC(=O)NC1C(=O)N2[C@@H]1SC(C)(C)[C@@H]2C(=O)O` (stereo partly shown) [Valeryl-6-APA, valeryl-6-APA], in assay [2], the “Ring expansion … of inhibition” value is reported as “intermediate size zones”. In addition, the “Inhibition Zone Diameter” value in assay [2] (2 mg/ml substrate) is 15 mm.

On to `CCCCCC(=O)N[C@@H]1C(=O)N2[C@@H]1SC(C)(C)[C@@H]2C(=O)O` [penicillin dihydroF], for which the ring expansion result in assay [1] is reported as “not”.

`CC1(C)S[C@@H]2[C@H](NC(=O)COc3ccccc3)C(=O)N2[C@H]1C(=O)O` [Penicillin V, penicillin V]: in assay [1], the ring expansion entry is “not”. Also, the “Ring expansion … of inhibition” value in assay [2] is “smaller zones”. The “Inhibition Zone Diameter” value in assay [2] (2 mg/ml substrate) was found to be 7.5 mm.

With `CC/C=C/CC(=O)N[C@@H]1C(=O)N2[C@@H]1SC(C)(C)[C@@H]2C(=O)O` [Penicillin F, penicillin F], the “Ring expansion … of inhibition” value in assay [2] is reported as “intermediate size zones”. Moreover, in assay [2] (2 mg/ml substrate), the “Inhibition Zone Diameter” value stood at 21 mm.

Consider `CCCCCCCC(=O)N[C@@H]1C(=O)N2[C@@H]1SC(C)(C)[C@@H]2C(=O)O` [penicillin K], for which the ring expansion entry in assay [1] is on record as “not”.

Regarding `CC1(C)S[C@@H]2[C@H](NC(=O)Cc3cccc(C(=O)O)c3)C(=O)N2[C@H]1C(=O)O` [m-carboxyphenylacetyl-6-APA], in assay [1], the ring expansion result is “not”. For the same compound, in assay [3], the in vitro substrate result is recorded as “at very low levels”.

As to D-glutamyl-6-APA, the ring expansion entry in assay [1] is given as “not”. Besides, the in vitro substrate result in assay [3] is “at very low levels”.
